According to the NIST ThermoML archive (doi:10.1016/j.jct.2013.11.021):
Numbers after ± are expanded uncertainties.

Test: mn = molality of the nth substance listed, in mol/kg
Details: 101 kPa, Liquid; for speed of sound: Sing-around technique in a fixed-path interferometer; for mass density: Vibrating tube method

O=C[O-].[NH3+]CCCO [3-hydroxypropylammonium formate] + O
Details | mass density, 298.15 K [kg/m3] | mass density, 303.15 K [kg/m3] | mass density, 308.15 K [kg/m3] | mass density, 313.15 K [kg/m3] | mass density, 318.15 K [kg/m3] | speed of sound, 298.15 K [m/s] | speed of sound, 303.15 K [m/s] | speed of sound, 308.15 K [m/s] | speed of sound, 313.15 K [m/s] | speed of sound, 318.15 K [m/s]
m1 = 0.1 | 998.637 ± 0.64 | 997.222 ± 0.63 | 995.623 ± 0.63 | 993.757 ± 0.63 | 991.751 ± 0.63 | 1501.7 ± 2.1 | 1513.4 ± 2.1 | 1523.7 ± 2.1 | 1532.4 ± 2.1 | 1539.7 ± 2.1
m1 = 0.2 | 1000.2 ± 0.64 | 998.76 ± 0.64 | 997.068 ± 0.63 | 995.252 ± 0.63 | 993.147 ± 0.63 | 1507.7 ± 2.1 | 1519 ± 2.1 | 1528.9 ± 2.1 | 1538.2 ± 2.1 | 1545.2 ± 2.1
m1 = 0.3 | 1001.76 ± 0.64 | 1000.3 ± 0.64 | 998.625 ± 0.64 | 996.753 ± 0.63 | 994.624 ± 0.63 | 1513.5 ± 2.1 | 1524.4 ± 2.1 | 1533.9 ± 2.1 | 1542 ± 2.1 | 1548.6 ± 2.1
m1 = 0.4 | 1003.33 ± 0.64 | 1001.84 ± 0.64 | 999.944 ± 0.64 | 998.26 ± 0.64 | 996.183 ± 0.63 | 1519.7 ± 2.1 | 1530.3 ± 2.1 | 1539.6 ± 2.1 | 1547.4 ± 2.1 | 1553.8 ± 2.1

O=C[C@H](O)[C@@H](O)[C@H](O)[C@H](O)CO [D-glucose] + O
Details | mass density, 298.15 K [kg/m3] | mass density, 303.15 K [kg/m3] | mass density, 308.15 K [kg/m3] | mass density, 313.15 K [kg/m3] | mass density, 318.15 K [kg/m3] | speed of sound, 298.15 K [m/s] | speed of sound, 303.15 K [m/s] | speed of sound, 308.15 K [m/s] | speed of sound, 313.15 K [m/s] | speed of sound, 318.15 K [m/s]
m1 = 0.04842 | 1000.33 ± 0.64 | 998.923 ± 0.64 | 997.289 ± 0.64 | 995.463 ± 0.63 | 993.441 ± 0.63 | 1499.3 ± 2.1 | 1512.1 ± 2.1 | – | 1531.8 ± 2.1 | –
m1 = 0.06669 | 1001.56 ± 0.64 | 1000.14 ± 0.64 | 998.498 ± 0.64 | 996.672 ± 0.63 | 994.638 ± 0.63 | – | 1513.2 ± 2.1 | 1523.1 ± 2.1 | 1532.9 ± 2.1 | 1539.7 ± 2.1
m1 = 0.0976 | 1003.62 ± 0.64 | 1002.18 ± 0.64 | 1000.53 ± 0.64 | 998.7 ± 0.64 | 996.647 ± 0.63 | 1502.3 ± 2.1 | 1515.1 ± 2.1 | 1525 ± 2.1 | 1534.6 ± 2.1 | 1541.4 ± 2.1
m1 = 0.1066 | 1004.22 ± 0.64 | 1002.77 ± 0.64 | 1001.12 ± 0.64 | 999.285 ± 0.64 | 997.23 ± 0.64 | 1502.9 ± 2.1 | 1515.6 ± 2.1 | 1525.5 ± 2.1 | 1535.1 ± 2.1 | 1541.9 ± 2.1
m1 = 0.1235 | 1005.32 ± 0.65 | 1003.87 ± 0.64 | 1002.21 ± 0.64 | 1000.38 ± 0.64 | 998.311 ± 0.64 | 1504 ± 2.1 | 1516.7 ± 2.1 | 1526.6 ± 2.1 | 1536.1 ± 2.1 | 1542.8 ± 2.1
m1 = 0.1462 | – | 1005.34 ± 0.65 | 1003.67 ± 0.64 | 1001.84 ± 0.64 | 999.761 ± 0.64 | 1505.4 ± 2.1 | 1518.1 ± 2.1 | – | 1537.3 ± 2.1 | –
